One series concerns ZIKV. The experiment in a line: Direct yield reduction assay (DYRA), ZIKV in Huh7 cells. It is filed as cell-based, Zika virus. As to conditions: Zika virus, Huh-7; Huh7 cells, DYRA, 72 h; read-out: ZIKV Huh7 IC50.
In another series the test system is hRV2. More on the design: method as in PMID 31729878. As to conditions: HeLa cells; cited from earlier work.
For series [1] the following is noted: PAMPA; cited from earlier work.
The conditions of series [2]: pH 7.4; cited from earlier work.
The test system of series [3] is SARS-CoV-2. Nature of the series: ENTRY-DYRA (entry inhibitor protocol), SARS-CoV-2 in Calu-3 cells. As to conditions: Calu-3 cells treated 1 h before infection, compound and virus removed, 72 h incubation. It is filed as cell-based.
A short description of series [4]: Stability in medium/serum solution. It is filed as in vitro ADME. As to conditions: EMEM, 2 mM L-glut, 1 % FBS, 1 % Pen/Strep, 37 °C.
Series [5] is described as follows: in vitro. As to conditions: human.
The test system of a further series is coxsackievirus B3 (CVB3). More on the design: method as in PMID 28122178, PMID 31729878. As to conditions: at low micromolar concentration; cited from earlier work.
A further series concerns hRV14. More on the design: method as in PMID 31729878. As to conditions: HeLa cells; cited from earlier work.
Another series addresses T1, PI4KIIIβ (Homo sapiens, UniProt Q9UBF8).
T1 construct: Recombinant full length, HIS6 -tagged PI4KIIIβ was purchased from ProQinase; His6; purchased ProQinase (Germany)
Nature of the series: In vitro kinase inhibition assay, PI4KIIIβ. It is filed as biochemical. As to conditions: mean of at least three independent experiments; 20 μM ATP.

Series [6] is described as follows: in vitro. As to conditions: human. This is another data set of the same source.
Series [7] is described as follows: in vitro. As to conditions: human. The source holds these as a separate data set.
Series [8] relates to SARS-CoV-2. Nature of the series: microbe, parasite or virus in culture. It is filed as cell-based. As to conditions: Severe acute respiratory syndrome coronavirus 2; Calu-3 cells, 72 h incubation, ±SD; NA: Not active; read-out: SARS-CoV-2 Calu-3 IC50 (DYRA protocol).
A short description of series [9]: Cytotoxicity assay (CellTiter-Glo 2.0) in Calu-3 cells. Type of series: cell-based. As to conditions: human, half-maximal cytotoxic concentration, read-out: SARS-CoV-2 Calu-3 CC50.
Series [10] is described as follows: Stability in medium/serum solution. Type of series: in vitro ADME. As to conditions: EMEM, 2 mM L-glut, 1 % FBS, 1 % Pen/Strep, 37 °C. On the procedure: (§1) appropriate calibration curve. For each compound, the determination was performed in three […]
(§2) Parallel Artificial Membrane Permeability Assay (PAMPA)
(§3) Each ‘donor solution’ was prepared from a solution of each compound (DMSO, 1 mM) diluted with 25 mM Phosphate Buffered Saline (PBS) at pH 7.4, up to a final concentration of 500 μM. The donor wells were filled with 150 µL of ‘donor solution’. The filters were coated with 5 μL of a solution of phosphatidylcholine in dodecane 1% (w/v) and the lower wells filled with 300 µL of ‘acceptor solution’ (50% v/v DMSO and PBS). The sandwich plate was assembled and incubated for 5 hours at room temperature under gentle shaking. At the end of the incubation time, the sandwich was disassembled and the amount of compound in the donor and acceptor wells was measured by LC-UV-MS. For each compound, the determination was performed in three independent experiments.
Apparent permeability (Papp) and membrane retention (%MR) were calculated according to the equations reported in reference.
Stability in Human Plasma
Pooled human plasma (1.5 mL, […]), PBS (1.4 mL, pH 7.4, 25 mM) and tested compound dissolved in DMSO (100 µL, 3.0 mM) were mixed in a test tube that was incubated at 37 […]
mixed with 600 µL of cold acetonitrile and centrifuged at 5000 rpm for 15 min [3]. The supernatant was removed and analyzed by LC-UV-MS. For each compound, the determination was performed in three independent experiments.
Stability in Medium/Serum solution
The stability of compounds under the experimental conditions used in the ENTRY-DYRA antiviral assay was evaluated. Each tested compound dissolved din DMSO (1.0 mL, 400 µM) was mixed in a test tube with EMEM, 2 mM L-glut, 1% FBS, 1% Pen/Strep solution (final concentration of the compound of 200 µM) and then incubated at 37 °C. At set time points (0.0, 0.08, 0.25, 0.50, 1.0, 3.0, and 24.0 h), samples of 100 µL were taken, mixed with 400 µL of cold acetonitrile and centrifuged at 5000 rpm for 15 min. The supernatant was removed and analyzed by UV/LC-MS. For each compound, the determination was performed in three independent experiments.
This is another data set of the same source.

For the next series, the system named is Enterovirus-A71 (EV-A71). More on the design: method as in PMID 28122178, PMID 31729878. As to conditions: at low micromolar concentration; cited from earlier work.
Series [11] in a line: in vitro. Type of series: in vitro ADME. As to conditions: PAMPA, 5 h, 500 μM, pH 7.4. How it is done: as §1, §2, §3
Apparent permeability (Papp) and membrane retention (%MR) were calculated according to the equations reported in reference. […]

The conditions of series [12]: C57BL/6 mice, up to 180 mg/kg; cited from earlier work.

SMILES strings stand for the structures. Marks after values point to notes of the source that are not given here. A value given as a limit tells only on which side of the number the result lay.

T1 sequence (Q9UBF8 whole entry): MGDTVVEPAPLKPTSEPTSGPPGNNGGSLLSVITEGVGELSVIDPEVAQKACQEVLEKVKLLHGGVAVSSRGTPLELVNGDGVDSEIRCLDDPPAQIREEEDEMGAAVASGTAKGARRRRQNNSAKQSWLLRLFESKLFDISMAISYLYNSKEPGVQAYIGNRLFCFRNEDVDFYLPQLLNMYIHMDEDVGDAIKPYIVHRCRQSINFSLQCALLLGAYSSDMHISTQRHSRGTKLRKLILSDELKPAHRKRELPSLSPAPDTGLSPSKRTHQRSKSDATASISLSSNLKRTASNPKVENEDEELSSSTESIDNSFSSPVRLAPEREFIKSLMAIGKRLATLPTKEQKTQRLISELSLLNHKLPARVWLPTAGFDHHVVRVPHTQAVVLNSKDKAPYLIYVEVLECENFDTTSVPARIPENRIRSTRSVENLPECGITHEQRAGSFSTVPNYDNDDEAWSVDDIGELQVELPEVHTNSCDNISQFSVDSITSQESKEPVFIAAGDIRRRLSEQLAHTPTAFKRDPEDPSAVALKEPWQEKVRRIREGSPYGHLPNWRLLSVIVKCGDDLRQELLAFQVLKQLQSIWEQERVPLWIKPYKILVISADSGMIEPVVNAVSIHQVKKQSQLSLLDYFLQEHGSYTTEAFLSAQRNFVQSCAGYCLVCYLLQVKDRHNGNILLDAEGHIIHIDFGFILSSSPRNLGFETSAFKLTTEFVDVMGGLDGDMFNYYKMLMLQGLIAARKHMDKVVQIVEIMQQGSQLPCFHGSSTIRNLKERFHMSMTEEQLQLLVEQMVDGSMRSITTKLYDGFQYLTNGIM

Turning to `CC(=O)c1cccc(N(CCO)c2nc(-c3sc(NC(=O)C(C)(C)C)nc3C)cs2)c1` [compound 2], the IC50 is 1 ± 0.1 µM in the series on ZIKV; 6.1 µM in the series with hRV2; above 9.1 µM with hRV14; 2.1 ± 0.17 µM against PI4KIIIβ; 3.95 ± 1.48 µM with SARS-CoV-2 [8]. Also, in series [1], the Papp was 1,1 10^−6 cm/sec. In series [2], the “Aqueous Solubility” value is listed as 0.05* μg/mL. The “SARS-CoV-2 Calu-3 IC50 (ENTRY-DYRA conditions, in parenthesis)” value in the series on SARS-CoV-2 [3] is “no effect on the entry phase”. Besides, the “Stability in Medium/Serum 48 h” value in series [4] is 90.4%. Besides, the CC50 in the series “in vitro [5]” was determined as 16 µM; in series [9] it was 40 µM. Besides, the “inhibition of CVB3 replication in infected cells” value in the series on coxsackievirus B3 (CVB3) was “inhibited”. The compound also returned a CC50 at 3 days in the series “in vitro [6]” of 17 µM. The viability at 4 h, 50 µM in the series “in vitro [7]” stood at 94.5%. The “Stability in Medium/Serum 24 h” value in series [10] is given as 98.5%. The “inhibition of EV-A71 replication in infected cells” value in the series on Enterovirus-A71 (EV-A71) was “inhibited”. For the same compound, the “Membrane Retention (% MR)” value in the series “in vitro [11]” was below 0.1%. The “tolerability, acute toxicity and histological alterations in key biodistribution organs” value in series [12] is “well tolerated”.

The values above are taken from article PMC8427023, “Bithiazole Inhibitors of Phosphatidylinositol 4‐Kinase (PI4KIIIβ) as Broad‐Spectrum Antivirals Blocking the Replication of SARS‐CoV‐2, Zika Virus, and Human Rhinoviruses” (Chemmedchem, 2021).
